PubChem BioAssay (NCI)
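96-well plates; 48 h exposure; 5 concentrations. Endpoints by linear interpolation between flanking doses. Not reached: highest tested concentration assigned. GI50 = concentration required for 50% inhibition of growth. Definition used: TGI = concentration required for complete inhibition of growth.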

Key:
Assay in all cases: NCI-60 cell line screen, 48 h
NCI/ADR-RES ovarian = test system: NCI/ADR-RES ovarian
CAKI-1 renal = test system: CAKI-1 renal
A549 NSCLC = test system: A549 NSCLC
SF-295 CNS = test system: SF-295 CNS
HOP-62 NSCLC = test system: HOP-62 NSCLC
786-0 renal = test system: 786-0 renal
KM12 colon = test system: KM12 colon
OVCAR-4 ovarian = test system: OVCAR-4 ovarian
MDA-MB-435 = test system: MDA-MB-435
UACC-62 melanoma = test system: UACC-62 melanoma

SMILES	GI50 (NCI/ADR-RES ovarian)	TGI (NCI/ADR-RES ovarian)	GI50 (CAKI-1 renal)	TGI (CAKI-1 renal)	GI50 (A549 NSCLC)	TGI (A549 NSCLC)	GI50 (SF-295 CNS)	TGI (SF-295 CNS)	GI50 (HOP-62 NSCLC)	TGI (HOP-62 NSCLC)	GI50 (786-0 renal)	TGI (786-0 renal)	GI50 (KM12 colon)	TGI (KM12 colon)	GI50 (OVCAR-4 ovarian)	TGI (OVCAR-4 ovarian)	GI50 (MDA-MB-435)	TGI (MDA-MB-435)	GI50 (UACC-62 melanoma)	TGI (UACC-62 melanoma)
COC(=O)[C@H]1CCCN1C(=O)[C@H]1CCCN1C(=O)[C@@H](Cc1c[nH]c2ccccc12)NC(=S)Nc1cc(C(F)(F)F)cc(C(F)(F)F)c1	3450 nM	12.5 µM	2100 nM	5.63 µM	1830 nM	4.52 µM	1670 nM	3.17 µM	2010 nM	3.83 µM	1830 nM	3.29 µM	1880 nM	3.92 µM	2860 nM	12.9 µM	1800 nM	3.58 µM	1840 nM	3.79 µM
C[C@]12CC[C@@H]3c4cc(OC(F)F)c(OS(N)(=O)=O)cc4CC[C@H]3[C@@H]1CC[C@@H]2O	601 nM	16.7 µM	485 nM	44.1 µM	1750 nM	> 88.2 µM	252 nM	1.03 µM	592 nM	27.3 µM	621 nM	29.1 µM	422 nM	16.6 µM	7800 nM	83.9 µM	209 nM	0.603 µM	299 nM	16.7 µM
CC1OC(OC2C(O)CC(OC3C(O)CC(OC4CCC5(C)C(CCC6C5CC(O)C5(C)C(C7=CC(=O)OC7)CCC65O)C4)OC3C)OC2C)CC(O)C1O (stereo not given)	38.5 nM	0.145 µM	41.6 nM	0.204 µM	18.7 nM	0.0356 µM	31.7 nM	0.171 µM	36 nM	0.125 µM	41 nM	0.162 µM	82.4 nM	0.28 µM	34.7 nM	0.139 µM	134 nM	0.318 µM	157 nM	0.333 µM
Oc1c(I)cc(I)c2cccnc12	2480 nM	8.84 µM	3170 nM	14.2 µM	5670 nM	> 100 µM	3100 nM	8.13 µM	4850 nM	26.8 µM	7140 nM	25.4 µM	4690 nM	> 100 µM	3940 nM	> 100 µM	4410 nM	> 100 µM	3090 nM	15.6 µM
O=C1c2sccc2-c2cccc3cccc1c23 (tested in a mixture with another compound)		47.2 µM		24.2 µM		16.8 µM		45 µM		> 100 µM		> 100 µM		28.6 µM		33.9 µM		> 100 µM		22.6 µM
C(=N/N(Cc1ccccc1)Cc1ccccc1)/c1ccccc1	> 100000 nM	> 100 µM	> 100000 nM	> 100 µM	> 100000 nM	> 100 µM	44500 nM	> 100 µM	> 100000 nM	> 100 µM	> 100000 nM	> 100 µM	> 100000 nM	> 100 µM	> 100000 nM	> 100 µM	77300 nM	> 100 µM	75000 nM	> 100 µM
COc1cc2nc(-c3cc(F)ccc3O)nc(N[C@@H]3CNC[C@H]3C(C)(C)O)c2cc1OC	2310 nM	6.09 µM	1000 nM	2.54 µM	1740 nM	3.51 µM	1980 nM	4.14 µM	1260 nM	2.76 µM	1440 nM	2.92 µM	1730 nM	3.18 µM	1880 nM	4.65 µM	1650 nM	3.03 µM	1780 nM	3.41 µM
COc1ccc(N(CC(=O)NCCC[Te]c2ccccc2)C(=O)CNC(=O)OC(C)(C)C)cc1	2910 nM	7.16 µM	2100 nM	5.6 µM	521 nM	2.17 µM	1270 nM	4.11 µM	2190 nM	4.73 µM	3750 nM	13 µM	3330 nM	11.4 µM	22600 nM	> 100 µM	3310 nM	13.5 µM	1650 nM	3.79 µM
CC1=C(CC(=O)c2cccc([N+](=O)[O-])c2)C(=O)c2ccccc2C1=O	3380 nM	20.6 µM	21700 nM	> 100 µM	15600 nM	36.2 µM	17700 nM	36.4 µM	4050 nM	16.1 µM	14800 nM	35.4 µM	17300 nM	49.5 µM	1860 nM	7 µM	2130 nM	4.04 µM	2630 nM	8.4 µM
Oc1cccc2ccc(N/N=C/c3cc(CN4CCOCC4)c(O)c4ncccc34)nc12	23.3 nM	1.63 µM	50.6 nM	1.59 µM	24.5 nM	1.23 µM	47.1 nM	5.27 µM	28.1 nM	1.44 µM	44.4 nM	3.75 µM	26.7 nM	3.41 µM	33.9 nM	2.14 µM	16.5 nM	2.86 µM	33.9 nM	0.55 µM
O=C(CC1(O)C(=O)N(Cc2ccccc2)c2ccccc21)c1ccc(C(=O)NCC2CCC3(CC2)OOC2(CCCCC2)OO3)cc1 (stereo not given)	1180 nM	3.47 µM	577 nM	1.14 µM	201 nM	0.458 µM	1300 nM	5.11 µM	273 nM	0.86 µM	180 nM	0.345 µM	988 nM	2.58 µM	1950 nM	5.35 µM	875 nM	2.45 µM	2200 nM	5.44 µM
CC1(C)CC(=O)C2=C(C1)OC(N)=C(c1nc(-c3ccccc3)cs1)C2c1ccc(Br)cc1 (stereo not given)	106 µg/mL	> 150 µg/mL	> 150 µg/mL	> 150 µg/mL	53.1 µg/mL	> 150 µg/mL	142 µg/mL	> 150 µg/mL	54.4 µg/mL	> 150 µg/mL	100 µg/mL	> 150 µg/mL	87.6 µg/mL	> 150 µg/mL	20.9 µg/mL	121 µg/mL	92.6 µg/mL	> 150 µg/mL	30.5 µg/mL	> 150 µg/mL
